Assay results published in US4321274A, “Substituted 1-(cinnamylideneamino)-3-benzyli-deneaminoguanidines active against Giardia lamblia and Trichomonas vaginalis” (priority 1980, dated 1982).
Values after ≈ are worked out from the molar mass of the structure shown. Read-outs that look alike come from different tables or passages of the source.

Key:
[1] = tested on: T. vaginalis 30001; assay: In vitro anti-T. vaginalis activity (50% inhibition of growth); type: cell-based, Trichomonas vaginalis; conditions: for IC50: Trichomonas vaginalis
Method: The activity of these compounds against Giardia lamblia and Trichomonas vaginalis are shown by the following test:
(§1) About 1.0-2.0 ml of a nutrient medium, for example, the modified Diamond's TPS medium at pH 7.05, together with about 10% by volume of heat-inactivated serum and about 1% by volume of antibiotic-antimycotic solution is placed in each well of a multiwell plate. To this mixture, an aliquot of a suspension of G. lamblia cells containing about […] is added. Subsequently, each well is inoculated with a known concentration of one of the active compounds, for example, 1-(3,4-dichlorocinnamylideneamino)-3-(4-cyanobenzylideneamino)guanidine. The multiwell plate containing the individual culture samples is incubated under anaerobic conditions at about 37° C. for about 16-24 hrs. The number of viable cells remaining in each well are then counted, such as with a hemacytometer. The percentage of survival is determined by comparison to controls inoculated with DMSO (dimethylsulfoxide) and the effective concentration (in parts per million) for 50% inhibition of growth (ED50) is determined. It is established that the lower the number of the value of ED50, the higher the activity of the active compound.
Employing essentially the same method of Example 1, centrifuged cells of T. vaginalis 30001 are inoculated with 1-(4-chlorocinnamylideneamino)-3-(3,4-dichlorobenzylideneamino)guanidine at 37° C. for 24 hours.
Similarly, previously described compounds (2) to (10) and the pharmaceutically acceptable salts thereof an active anti- T. vaginalis agents as shown in Table 1.

[2] = tested on: Giardia lamblia; assay: In vitro anti-G. lamblia activity (50% inhibition of growth, viable cell count); type: cell-based; conditions: Giardia duodenalis, 37° C., anaerobic, about 16-24 hrs (Example 1: 24 hours), vs DMSO controls, read-out: Anti-G. lamblia ED50
Method: as §1
In each well of a multiwell plate is placed 1.4 ml of media mix containing Diamond's TPS medium (see Table 2) at pH 7.05, 10% by volume of heat-inactivated fetal bovine serum, and 1% by volume of an antibiotic-antimycotic solution (see Table 3). A suspension of Giardia lamblia is centrifuged at 2,500 xg. for 6 minutes. The cells are resuspended in a small volume of the Diamond's medium, counted, and each well inoculated with approximately 10^6 organisms. A stock solution of 1-(4-chlorocinnamylideneamino)-3-(3,4-dichlorobenzylideneamino)guanidine in dimethylsulfoxide is made at a concentration of 150 μg/ml. The wells are then inoculated with various concentrations of the drug. The plates are incubated for 24 hours at 37° C. in an anaerobic Gas Pak jar. After 24 hours of incubation each well is mixed and counted for viable organisms using a hemacytometer. The percentage of survival is determined by comparing the treated wells to controls treated with dimethylsulfoxide.
Employing substantially the similar procedure as described in Example 1 but substituting for 1-(4-chlorocinnamylideneamino)-3-(3,4-dichlorobenzylideneamino)guanidine used therein other active compounds, there are obtained similar results indicating the anti- G. lamblia activities of the compounds included above in Table 1.

[3] = cited from earlier work
[4] = tested on: Giardia lamblia; conditions: New York Times, June 10, 1980; cited from earlier work
[5] = tested on: animals; conditions: cited from earlier work
[6] = tested on: Trichomonas vaginalis; conditions: has been reported; cited from earlier work
[7] = in vitro, 37° C., 24 hours, Table 1, read-out: Anti-T. vaginalis ED50

Row | SMILES | IC50 [2] | IC50 [1, 7] | also measured
1 | N=C(NN=CC=Cc1ccc(Cl)cc1)NN=Cc1ccc(Cl)c(Cl)c1 [(1), 1-(4-chlorocinnamylideneamino)-3-(3,4-dichlorobenzylideneamino)guanidine] | 1.1 µg/mL (≈ 2.79 µM) |  | IC50 ([1]; Example 2, 37° C. for 24 hours, unit inferred, read-out: ED50 value, anti-T. vaginalis): 2.25 µg/mL (≈ 5.7 µM); anti-T. vaginalis activity in words ([1]; in vitro, method of Example 1/2): effective anti- T. vaginalis agent
2 | CN(N=Cc1ccc(Cl)cc1)C(=N)NN=CC=Cc1ccc(C#N)cc1 [(3), 1-(4-cyanocinnamylideneamino)-3-(4-chlorobenzylideneamino)-3-methyl-guanidine] | 0.85 µg/mL (≈ 2.33 µM) | 3.25 µg/mL (≈ 8.91 µM) | 
3 | CN(N=Cc1ccc(Cl)cc1)C(=N)NN=CC=Cc1ccc(Cl)c(Cl)c1 [(4), 1-(3,4-dichlorocinnamylideneamino)-3-(4-chlorobenzylideneamino)-3-methyl-guanidine] | 0.58 µg/mL (≈ 1.42 µM) | 2.5 µg/mL (≈ 6.12 µM) | 
4 | N#Cc1ccc(C=NNC(=N)NN=CC=Cc2ccc(Cl)c(Cl)c2)cc1 [(7), 1-(3,4-dichlorocinnamylideneamino)-3-(4-cyanobenzylideneamino)guanidine] | 0.57 µg/mL (≈ 1.48 µM) | 1 µg/mL (≈ 2.6 µM) | 
5 | CN(N=Cc1ccc(Cl)cc1)C(=N)NN=CC=Cc1ccc(Cl)cc1 [(8), 1-(4-chlorocinnamylideneamino)-3-(4-chlorobenzylideneamino)-3-methyl-guanidine] | 1.4 µg/mL (≈ 3.74 µM) | 2.67 µg/mL (≈ 7.13 µM) | 
6 | CCN(CC)CCCC(C)Nc1c2ccc(Cl)cc2nc2ccc(OC)cc12 (stereo not shown) [Atabrine] |  |  | adverse side effects ([3]; in vivo): known to cause adverse side effects; treatment of giardiasis [4]: successfully treated
7 | Cc1ncc([N+](=O)[O-])n1CCO [Flagyl (metronidazole), metronidazole] | 6.2 µg/mL (≈ 36.2 µM) | < 1 µg/mL | adverse side effects ([3]; in vivo): known to cause adverse side effects; carcinogenicity [5]: carcinogenic in animals; treatment of giardiasis [4]: successfully treated; therapy of trichomoniasis [6]: Successful therapy
8 | O=C1OCCN1/N=C/c1ccc([N+](=O)[O-])o1 [furazolidone] |  |  | adverse side effects ([3]; New York Times, June 10, 1980): known to cause adverse side effects; treatment of giardiasis [4]: successfully treated

Now from value to molecule, other results behind:

Row | IC50 [2] | IC50 [1, 7] | SMILES | also measured
9 | 0.8 µg/mL (≈ 1.96 µM) | 2.75 µg/mL (≈ 6.74 µM) | CN(N=Cc1ccc(Cl)cc1)C(=N)NN=CC=Cc1ccc(C(F)(F)F)cc1 [(2), 1-(4-trifluoromethylcinnamylideneamino)-3-(4-chlorobenzylideneamino)-3-methylguanidine] | 
10 | 1.5 µg/mL (≈ 3.77 µM) | 3.25 µg/mL (≈ 8.16 µM) | CN(N=Cc1ccc(C(F)(F)F)cc1)C(=N)NN=CC=Cc1ccc(C#N)cc1 [(5), 1-(4-cyanocinnamylideneamino)-3-(4-trifluoromethylbenzylideneamino)-3-methyl-guanidine] | 
11 | 0.73 µg/mL (≈ 1.65 µM) | 2.67 µg/mL (≈ 6.04 µM) | CN(N=Cc1ccc(C(F)(F)F)cc1)C(=N)NN=CC=Cc1ccc(Cl)c(Cl)c1 [(6), 1-(3,4-dichlorocinnamylideneamino)-3-(4-trifluoromethylbenzylideneamino)-3-methyl-guanidine] | 
12 | 1.3 µg/mL (≈ 3.19 µM) | 2.38 µg/mL (≈ 5.84 µM) | CN(N=Cc1ccc(C(F)(F)F)cc1)C(=N)NN=CC=Cc1ccc(Cl)cc1 [(9), 1-(4-chlorocinnamylideneamino)-3-(4-trifluoromethylbenzylideneamino)-3-methyl-guanidine] | 
13 | 1 µg/mL (≈ 2.39 µM) | 3.25 µg/mL (≈ 7.77 µM) | CN(N=Cc1ccc([N+](=O)[O-])cc1)C(=N)NN=CC=Cc1ccc(C(F)(F)F)cc1 [(10), 1-(4-trifluoromethylcinnamylideneamino)-3-(4-nitrobenzylideneamino)-3-methyl-guanidine] | 
